Where a SMILES comes first, the peptide text is derived from it. [ ]: non-standard residue; d: D form. The star is where a group is joined. NHCH2CH2OH = OCCN*; For = O=C*
Tests used:
[1] = H+/Na+ transport assay of bead-derived peptides (one-point); assay type: biochemical; parameters: key: relative activity; mean of two control wells = 1.00; conditions: bead-derived peptide solution, EYPC/EYPG LUVs;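 note: relative to parent gramicidin A activity set to 1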
In short: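 Pyranine (1.0 mM)-loaded LUVs containing egg yolk phosphatidylglycerol were prepared by film hydration, sonication and extrusion, then mixed with diluted bead-derived peptide in 96-well format and vortexed 30 min at room temperature. Fluorescence was normalized between untreated LUVs (0%) and Triton X-100 lysis (100%).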

[2] = cell viability/%
In short: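 First, library peptide stocks are diluted 250-fold in RPMI1640 with 10% heat-inactivated FBS. Next, they are mixed with P388 cells to give 1 × 10^4 cells/mL and incubated 92 h at 37 °C, 5% CO2. Finally, viability (%) is scored by WST-1 absorbance at 415 nm.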

[3] = tested on: Streptococcus pyogenes SSI-9; test: Antibacterial activity assay of bead-derived peptides (three concentrations); assay type: cell-based; parameters: key: +++: inhibition by the 640-fold diluted peptide solution; ++: inhibition by the 160-fold diluted solution; +: inhibition by the 40-fold diluted solution; -: no inhibition; conditions: S. pyogenes, bead-derived peptide solution, three concentrations
In short: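 Bead-derived library peptide stocks in DMSO were tested undiluted and after 4- and 16-fold DMSO dilution against S. pyogenes SSI-9 (2 × 10^5 CFU/well) in cation-adjusted Mueller Hinton Broth with 5% laked horse blood. After 18 h at 37 °C, wells were scored for precipitation of grown cells.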

SMILES | H+/Na+ transport activity normalized against the value of 1 (1.00) [1] | viability [2] [%] | antibacterial activity [3]
CC(C)C[C@@H](NC(=O)[C@H](C)NC(=O)CNC(=O)[C@@H](NC=O)C(C)C)C(=O)N[C@@H](C)C(=O)N[C@H](CC(C)C)C(=O)N[C@H](C(=O)N[C@H](CC(C)C)C(=O)N[C@@H](Cc1c[nH]c2ccccc12)C(=O)N[C@H](CC(C)C)C(=O)N[C@@H](Cc1c[nH]c2ccccc12)C(=O)N[C@@H](C(=O)N[C@@H](Cc1c[nH]c2ccccc12)C(=O)N[C@@H](C(=O)N[C@@H](Cc1c[nH]c2ccccc12)C(=O)NCCO)[C@H](C)O)[C@H](C)O)C(C)C [compound 7156] (For-VGA[dL]A[dL]V[dL]W[dL]W[dT]W[dT]W-NHCH2CH2OH) | 1.08 | 100 | -
CNC(=O)C[C@@H](NC(=O)[C@@H](NC(=O)[C@H](NC(=O)[C@H](C)NC(=O)[C@@H](CC(C)C)NC(=O)[C@H](C)NC(=O)CNC(=O)[C@@H](NC=O)C(C)C)C(C)C)C(C)C)C(=O)N[C@@H](Cc1c[nH]c2ccccc12)C(=O)N[C@H](CC(C)C)C(=O)N[C@@H](Cc1c[nH]c2ccccc12)C(=O)N[C@H](CC(C)C)C(=O)N[C@@H](Cc1c[nH]c2ccccc12)C(=O)N[C@@H](C(=O)N[C@@H](Cc1c[nH]c2ccccc12)C(=O)NCCO)C(C)C [compound 7204] (For-VGA[dL]A[dV]V[dD](NHMe)W[dL]W[dL]W[dV]W-NHCH2CH2OH) | 1.17 | 100 | -
CC(C)C[C@@H](NC(=O)[C@H](C)NC(=O)[C@H](NC(=O)[C@H](C)NC(=O)CNC(=O)[C@@H](NC=O)C(C)C)[C@H](C)O)C(=O)N[C@H](C(=O)N[C@@H](C(=O)N[C@@H](Cc1c[nH]c2ccccc12)C(=O)N[C@@H](C(=O)N[C@@H](Cc1c[nH]c2ccccc12)C(=O)N[C@@H](C(=O)N[C@@H](Cc1c[nH]c2ccccc12)C(=O)N[C@H](CC(C)C)C(=O)N[C@@H](Cc1c[nH]c2ccccc12)C(=O)NCCO)C(C)C)[C@H](C)O)C(C)C)C(C)C [compound 7225] (For-VGA[dT]A[dL]V[dV]W[dT]W[dV]W[dL]W-NHCH2CH2OH) | 1.14 | 100 | -
CC(C)C[C@@H](NC(=O)[C@H](C)NC(=O)CNC(=O)[C@@H](NC=O)C(C)C)C(=O)N[C@@H](C)C(=O)N[C@H](CC(C)C)C(=O)N[C@H](C(=O)N[C@H](CC(C)C)C(=O)N[C@@H](Cc1c[nH]c2ccccc12)C(=O)N[C@@H](C(=O)N[C@@H](Cc1c[nH]c2ccccc12)C(=O)N[C@@H](C(=O)N[C@@H](Cc1c[nH]c2ccccc12)C(=O)N[C@@H](C(=O)N[C@@H](Cc1c[nH]c2ccccc12)C(=O)NCCO)[C@H](C)O)[C@H](C)O)C(C)C)C(C)C [compound 7253] (For-VGA[dL]A[dL]V[dL]W[dV]W[dT]W[dT]W-NHCH2CH2OH) | 1.03 | 45.4 | -
CC(C)C[C@@H](NC(=O)[C@H](Cc1c[nH]c2ccccc12)NC(=O)[C@H](NC(=O)[C@H](Cc1c[nH]c2ccccc12)NC(=O)[C@H](NC(=O)[C@H](Cc1c[nH]c2ccccc12)NC(=O)[C@@H](CC(C)C)NC(=O)[C@@H](NC(=O)[C@H](NC(=O)[C@H](C)NC(=O)[C@H](NC(=O)[C@H](C)NC(=O)CNC(=O)[C@@H](NC=O)C(C)C)C(C)C)[C@H](C)O)C(C)C)C(C)C)C(C)C)C(=O)N[C@@H](Cc1c[nH]c2ccccc12)C(=O)NCCO [compound 7320] (For-VGA[dV]A[dT]V[dL]W[dV]W[dV]W[dL]W-NHCH2CH2OH) | 1.04 | 58.5 | -
CNC(=O)C[C@@H](NC(=O)[C@H](Cc1c[nH]c2ccccc12)NC(=O)[C@H](NC(=O)[C@H](Cc1c[nH]c2ccccc12)NC(=O)[C@@H](CC(C)C)NC(=O)[C@H](Cc1c[nH]c2ccccc12)NC(=O)[C@@H](CC(C)C)NC(=O)[C@@H](NC(=O)[C@@H](CC(C)C)NC(=O)[C@H](C)NC(=O)[C@H](NC(=O)[C@H](C)NC(=O)CNC(=O)[C@@H](NC=O)C(C)C)C(C)C)C(C)C)C(C)C)C(=O)N[C@@H](Cc1c[nH]c2ccccc12)C(=O)NCCO [compound 7334] (For-VGA[dV]A[dL]V[dL]W[dL]W[dV]W[dD](NHMe)W-NHCH2CH2OH) | 1.11 | 94.6 | -
CC(C)C[C@@H](NC(=O)[C@H](C)NC(=O)CNC(=O)[C@@H](NC=O)C(C)C)C(=O)N[C@@H](C)C(=O)N[C@H](CC(C)C)C(=O)N[C@H](C(=O)N[C@H](CC(C)C)C(=O)N[C@@H](Cc1c[nH]c2ccccc12)C(=O)N[C@H](CC(C)C)C(=O)N[C@@H](Cc1c[nH]c2ccccc12)C(=O)N[C@@H](C(=O)N[C@@H](Cc1c[nH]c2ccccc12)C(=O)N[C@@H](C(=O)N[C@@H](Cc1c[nH]c2ccccc12)C(=O)NCCO)[C@H](C)O)C(C)C)C(C)C [compound 7512] (For-VGA[dL]A[dL]V[dL]W[dL]W[dV]W[dT]W-NHCH2CH2OH) | 1.05 | 100 | -
CC(C)C[C@@H](NC(=O)[C@H](C)NC(=O)CNC(=O)[C@@H](NC=O)C(C)C)C(=O)N[C@@H](C)C(=O)N[C@@H](C(=O)N[C@H](C(=O)N[C@H](CC(C)C)C(=O)N[C@@H](Cc1c[nH]c2ccccc12)C(=O)N[C@@H](C(=O)N[C@@H](Cc1c[nH]c2ccccc12)C(=O)N[C@H](CC(C)C)C(=O)N[C@@H](Cc1c[nH]c2ccccc12)C(=O)N[C@H](CC(C)C)C(=O)N[C@@H](Cc1c[nH]c2ccccc12)C(=O)NCCO)C(C)C)C(C)C)C(C)C [compound 7532] (For-VGA[dL]A[dV]V[dL]W[dV]W[dL]W[dL]W-NHCH2CH2OH) | 1.03 | 3.9 | +
CC(C)C[C@@H](NC(=O)[C@H](C)NC(=O)[C@H](NC(=O)[C@H](C)NC(=O)CNC(=O)[C@@H](NC=O)C(C)C)C(C)C)C(=O)N[C@H](C(=O)N[C@@H](C(=O)N[C@@H](Cc1c[nH]c2ccccc12)C(=O)N[C@@H](C(=O)N[C@@H](Cc1c[nH]c2ccccc12)C(=O)N[C@@H](C(=O)N[C@@H](Cc1c[nH]c2ccccc12)C(=O)N[C@@H](C(=O)N[C@@H](Cc1c[nH]c2ccccc12)C(=O)NCCO)C(C)C)C(C)C)C(C)C)C(C)C)C(C)C [compound 7690] (For-VGA[dV]A[dL]V[dV]W[dV]W[dV]W[dV]W-NHCH2CH2OH) | 1.03 | 100 | -
CC(C)C[C@@H](NC(=O)[C@H](Cc1c[nH]c2ccccc12)NC(=O)[C@H](NC(=O)[C@H](Cc1c[nH]c2ccccc12)NC(=O)[C@@H](CC(C)C)NC(=O)[C@H](Cc1c[nH]c2ccccc12)NC(=O)[C@H](NC(=O)[C@@H](NC(=O)[C@H](NC(=O)[C@H](C)NC(=O)[C@H](NC(=O)[C@H](C)NC(=O)CNC(=O)[C@@H](NC=O)C(C)C)C(C)C)[C@H](C)O)C(C)C)C(C)C)C(C)C)C(=O)N[C@@H](Cc1c[nH]c2ccccc12)C(=O)NCCO [compound 7912] (For-VGA[dV]A[dT]V[dV]W[dL]W[dV]W[dL]W-NHCH2CH2OH) | 1.12 | 100 | -
CNC(=O)C[C@@H](NC(=O)[C@H](C)NC(=O)CNC(=O)[C@@H](NC=O)C(C)C)C(=O)N[C@@H](C)C(=O)N[C@H](CC(C)C)C(=O)N[C@H](C(=O)N[C@@H](C(=O)N[C@@H](Cc1c[nH]c2ccccc12)C(=O)N[C@H](CC(C)C)C(=O)N[C@@H](Cc1c[nH]c2ccccc12)C(=O)N[C@H](CC(C)C)C(=O)N[C@@H](Cc1c[nH]c2ccccc12)C(=O)N[C@H](CC(C)C)C(=O)N[C@@H](Cc1c[nH]c2ccccc12)C(=O)NCCO)C(C)C)C(C)C [compound 8038] (For-VGA[dD](NHMe)A[dL]V[dV]W[dL]W[dL]W[dL]W-NHCH2CH2OH) | 1.04 | 100 | -
CC(C)C[C@@H](NC(=O)[C@H](C)NC(=O)CNC(=O)[C@@H](NC=O)C(C)C)C(=O)N[C@@H](C)C(=O)N[C@H](CC(C)C)C(=O)N[C@H](C(=O)N[C@@H](C(=O)N[C@@H](Cc1c[nH]c2ccccc12)C(=O)N[C@@H](C(=O)N[C@@H](Cc1c[nH]c2ccccc12)C(=O)N[C@H](CC(C)C)C(=O)N[C@@H](Cc1c[nH]c2ccccc12)C(=O)N[C@@H](C(=O)N[C@@H](Cc1c[nH]c2ccccc12)C(=O)NCCO)C(C)C)C(C)C)[C@H](C)O)C(C)C [compound 8043] (For-VGA[dL]A[dL]V[dT]W[dV]W[dL]W[dV]W-NHCH2CH2OH) | 1.04 | 100 | -
CC(C)C[C@@H](NC(=O)[C@H](C)NC(=O)CNC(=O)[C@@H](NC=O)C(C)C)C(=O)N[C@@H](C)C(=O)N[C@@H](C(=O)N[C@H](C(=O)N[C@H](CC(C)C)C(=O)N[C@@H](Cc1c[nH]c2ccccc12)C(=O)N[C@@H](C(=O)N[C@@H](Cc1c[nH]c2ccccc12)C(=O)N[C@@H](C(=O)N[C@@H](Cc1c[nH]c2ccccc12)C(=O)N[C@H](CC(C)C)C(=O)N[C@@H](Cc1c[nH]c2ccccc12)C(=O)NCCO)C(C)C)C(C)C)C(C)C)C(C)C [compound 8051] (For-VGA[dL]A[dV]V[dL]W[dV]W[dV]W[dL]W-NHCH2CH2OH) | 1.13 | 16.8 | +

Reference: article PMC7531004, “Discovery of gramicidin A analogues with altered activities by multidimensional screening of a one-bead-one-compound library” (Nature Communications, 2020)
